For the test, the target named is Tie-2 (Homo sapiens, UniProt Q02763). As to the kind of experiment: Tie-2 tyrosine kinase activity assay (luciferase/luciferin ATP consumption with pEY substrate, or 33P-ATP incorporation). Type of test: biochemical. The conditions noted are these: human enzyme Tie-2. Summed up:
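Values are IC50 categories (A <50 nM to D ≥10,000 nM), with Ki obtainable by fitting rates to a tight-binding model. Assay formats: 33P-ATP phosphate transfer to adsorbed generic substrate counted by scintillation, or luciferase-detected ATP depletion using pEY.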

Some results are limits rather than exact numbers.

Tie-2, sequence (Q02763 23-1124): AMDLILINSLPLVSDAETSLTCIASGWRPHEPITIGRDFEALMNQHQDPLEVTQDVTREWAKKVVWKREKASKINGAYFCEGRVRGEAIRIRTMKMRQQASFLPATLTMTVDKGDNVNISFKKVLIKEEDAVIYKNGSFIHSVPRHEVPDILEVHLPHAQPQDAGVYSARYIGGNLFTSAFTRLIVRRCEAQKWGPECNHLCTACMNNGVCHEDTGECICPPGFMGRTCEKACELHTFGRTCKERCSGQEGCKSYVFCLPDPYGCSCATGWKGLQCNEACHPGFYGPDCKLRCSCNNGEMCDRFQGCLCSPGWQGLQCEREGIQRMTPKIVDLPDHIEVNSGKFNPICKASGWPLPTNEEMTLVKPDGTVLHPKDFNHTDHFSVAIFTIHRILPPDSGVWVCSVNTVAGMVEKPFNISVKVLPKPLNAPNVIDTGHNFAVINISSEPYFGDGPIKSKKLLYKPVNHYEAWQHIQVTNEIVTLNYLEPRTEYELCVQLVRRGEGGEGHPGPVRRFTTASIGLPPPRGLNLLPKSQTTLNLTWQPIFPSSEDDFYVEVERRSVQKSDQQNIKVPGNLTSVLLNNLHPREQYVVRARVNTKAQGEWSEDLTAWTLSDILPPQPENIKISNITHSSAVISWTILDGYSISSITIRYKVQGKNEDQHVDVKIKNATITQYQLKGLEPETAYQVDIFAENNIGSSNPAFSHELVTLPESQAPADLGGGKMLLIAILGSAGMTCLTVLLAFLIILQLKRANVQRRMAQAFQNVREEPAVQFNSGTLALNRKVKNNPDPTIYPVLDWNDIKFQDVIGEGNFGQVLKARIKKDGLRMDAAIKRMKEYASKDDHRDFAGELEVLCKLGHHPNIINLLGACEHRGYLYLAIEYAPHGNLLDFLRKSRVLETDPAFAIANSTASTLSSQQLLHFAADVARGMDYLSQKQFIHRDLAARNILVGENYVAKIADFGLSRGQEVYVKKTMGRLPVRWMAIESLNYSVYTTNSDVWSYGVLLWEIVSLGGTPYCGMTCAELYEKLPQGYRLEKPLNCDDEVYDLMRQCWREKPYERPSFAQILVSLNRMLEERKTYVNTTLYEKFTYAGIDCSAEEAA

As to `Nc1nccc(COc2cccnc2N2CCN(C(=O)Nc3cc(Cl)ccc3F)CC2)n1` [Example 193, 4-(3-{[(2-aminopyrimidin-4-yl)methyl]oxy}pyridin-2-yl)-N-(5-chloro-2-fluorophenyl)piperazine-1-carboxamide], the IC50 was 0.05 to 1 µM.
In the case of `CCc1cccc(NC(=O)N2CCN(c3ncc(Br)cc3OCc3nc(N)ncc3Br)CC2)c1` [Example 194, 4-(3-{[(2-amino-5-bromopyrimidin-4-yl)methyl]oxy}-5-bromopyridin-2-yl)-N-(3-ethylphenyl)piperazine-1-carboxamide], the half-maximal inhibitory concentration (IC50) was below 0.05 µM.
`Nc1nccc(COc2cccnc2N2CCN(C(=O)Nc3cccc(C(F)(F)F)c3F)CC2)n1` [Example 195, 4-(3-{[(2-aminopyrimidin-4-yl)methyl]oxy}pyridin-2-yl)-N-[2-fluoro-3-(trifluoromethyl)phenyl]piperazine-1-carboxamide]: the concentration for half-maximal inhibition (IC50) is 0.05 to 1 µM.
In turn, `Nc1nccc(COc2cccnc2N2CCN(C(=O)Nc3cc(F)cc(C(F)(F)F)c3)CC2)n1` [Example 196, 4-(3-{[(2-aminopyrimidin-4-yl)methyl]oxy}pyridin-2-yl)-N-[3-fluoro-5-(trifluoromethyl)phenyl]piperazine-1-carboxamide] yielded a 50% inhibitory concentration (IC50) below 0.05 µM.
On to `Nc1nccc(COc2cccnc2N2CCN(C(=O)Nc3cc(Cl)cc(Cl)c3)CC2)n1` [Example 197, 4-(3-{[(2-aminopyrimidin-4-yl)methyl]oxy}pyridin-2-yl)-N-(3,5-dichlorophenyl)piperazine-1-carboxamide], for which the 50% inhibitory concentration (IC50) is below 0.05 µM.
As for `CCc1cc(Cl)cc(NC(=O)N2CCN(c3ncccc3OCc3ccnc(NC(=O)CN4CCN(C)CC4)c3)CC2)c1` [Example 198, N-(3-chloro-5-ethylphenyl)-4-(3-{[(2-{[(4-methylpiperazin-1-yl)acetyl]amino}pyridin-4-yl)methyl]oxy}pyridin-2-yl)piperazine-1-carboxamide], the IC50 was below 0.05 µM.
The molecule `CCc1ccc(F)c(NC(=O)N2CCN(c3ncccc3OCc3ccnc(NC(=O)CN4CCN(C)CC4)c3)CC2)c1` [Example 199, N-(5-ethyl-2-fluorophenyl)-4-(3-{[(2-{[(4-methylpiperazin-1-yl)acetyl]amino}pyridin-4-yl)methyl]oxy}pyridin-2-yl)piperazine-1-carboxamide] gave a concentration for half-maximal inhibition (IC50) below 0.05 µM.
`CCc1cc(NC(=O)N2CCN(c3ncccc3OCc3ccnc(N)n3)CC2)cc(C(F)(F)F)c1` [Example 200, 4-(3-{[(2-aminopyrimidin-4-yl)methyl]oxy}pyridin-2-yl)-N-[3-ethyl-5-(trifluoromethyl)phenyl]piperazine-1-carboxamide] registered an IC50 below 0.05 µM.
For `CCc1cccc(NC(=O)N2CCN(c3nccnc3OCc3ccnc(N)n3)CC2)c1` [Example 201, 4-(3-{[(2-aminopyrimidin-4-yl)methyl]oxy}pyrazin-2-yl)-N-(3-ethylphenyl)piperazine-1-carboxamide], the IC50 was below 0.05 µM.
`CCc1cc(Cl)cc(NC(=O)N2CCN(c3nccnc3OCc3ccnc(N)n3)CC2)c1` [Example 202, 4-(3-{[(2-aminopyrimidin-4-yl)methyl]oxy}pyrazin-2-yl)-N-(3-chloro-5-ethylphenyl)piperazine-1-carboxamide] came in with a half-inhibitory concentration (IC50) below 0.05 µM.
Regarding `CCc1ccc(F)c(NC(=O)N2CCN(c3nccnc3OCc3ccnc(N)n3)CC2)c1` [Example 203, 4-(3-{[(2-aminopyrimidin-4-yl)methyl]oxy}pyrazin-2-yl)-N-(5-ethyl-2-fluorophenyl)piperazine-1-carboxamide], the IC50 is below 0.05 µM.
Consider `CNC(=O)N1CCN(c2ncccc2OCc2ccnc(N)n2)CC1` [Example 204, 4-(3-{[(2-aminopyrimidin-4-yl)methyl]oxy}pyridin-2-yl)-N-methylpiperazine-1-carboxamide], for which the half-maximal inhibitory concentration (IC50) is at least 10 µM.
The figure for `CCNC(=O)N1CCN(c2ncccc2OCc2ccnc(N)n2)CC1` [Example 205, 4-(3-{[(2-aminopyrimidin-4-yl)methyl]oxy}pyridin-2-yl)-N-ethylpiperazine-1-carboxamide] is at least 10 µM; for `Nc1nccc(COc2cccnc2N2CCN(C(=O)NC3CCCCC3)CC2)n1` [Example 206, 4-(3-{[(2-aminopyrimidin-4-yl)methyl]oxy}pyridin-2-yl)-N-cyclohexylpiperazine-1-carboxamide] it is 1 to 10 µM.
For the molecule `CC(=O)N1CCN(c2ncccc2OCc2ccnc(N)n2)CC1` [Example 207, 4-({[2-(4-acetylpiperazin-1-yl)pyridin-3-yl]oxy}methyl)pyrimidin-2-amine], the half-inhibitory concentration (IC50) was at least 10 µM.
The molecule `CCC(=O)N1CCN(c2ncccc2OCc2ccnc(N)n2)CC1` [Example 208, 4-({[2-(4-propanoylpiperazin-1-yl)pyridin-3-yl]oxy}methyl)pyrimidin-2-amine] had an IC50 of at least 10 µM.
With `CN1CCN(CC(=O)Nc2cc(COc3cccnc3N3CCN(C(=O)Nc4cccc(C5CC5)c4)CC3)ccn2)CC1` [Example 209, N-(3-cyclopropylphenyl)-4-(3-{[(2-{[(4-methylpiperazin-1-yl)acetyl]amino}pyridin-4-yl)methyl]oxy}pyridin-2-yl)piperazine-1-carboxamide] the figure was below 0.05 µM; with `Nc1nccc(COc2cccnc2N2CCN(C(=O)Nc3cccc(C4CC4)c3)CC2)n1` [Example 210, 4-(3-{[(2-aminopyrimidin-4-yl)methyl]oxy}pyridin-2-yl)-N-(3-cyclopropylphenyl)piperazine-1-carboxamide], below 0.05 µM.
With `CN1CCN(CC(=O)Nc2cc(COc3cccnc3N3CCN(C(=O)Nc4cc(C(F)(F)F)ccc4F)CC3)ccn2)CC1` [Example 211, N-[2-fluoro-5-(trifluoromethyl)phenyl]-4-(3-{[(2-{[(4-methylpiperazin-1-yl)acetyl]amino}pyridin-4-yl)methyl]oxy}pyridin-2-yl)piperazine-1-carboxamide], the IC50 is 0.05 to 1 µM.
As to `CN1CCN(CC(=O)Nc2cc(COc3cccnc3N3CCN(C(=O)Nc4cc(F)cc(C(F)(F)F)c4)CC3)ccn2)CC1` [Example 212, N-[3-fluoro-5-(trifluoromethyl)phenyl]-4-(3-{[(2-{[(4-methylpiperazin-1-yl)acetyl]amino}pyridin-4-yl)methyl]oxy}pyridin-2-yl)piperazine-1-carboxamide], the IC50 was below 0.05 µM.
Consider `CN1CCN(CC(=O)Nc2cc(COc3cccnc3N3CCN(C(=O)Nc4cc(Cl)cc(Cl)c4)CC3)ccn2)CC1` [Example 213, N-(3,5-dichlorophenyl)-4-(3-{[(2-{[(4-methylpiperazin-1-yl)acetyl]amino}pyridin-4-yl)methyl]oxy}pyridin-2-yl)piperazine-1-carboxamide], for which the IC50 is below 0.05 µM.
For `CN1CCN(CC(=O)Nc2cc(COc3cccnc3N3CCN(C(=O)Nc4cccc(C(F)(F)F)c4)CC3)ccn2)CC1` [Example 214, 4-(3-{[(2-{[(4-methylpiperazin-1-yl)acetyl]amino}pyridin-4-yl)methyl]oxy}pyridin-2-yl)-N-[3-(trifluoromethyl)phenyl]piperazine-1-carboxamide], the half-inhibitory concentration (IC50) was below 0.05 µM.
In the case of `CCc1cc(CC)cc(NC(=O)N2CCN(c3nccnc3OCc3ccnc(N)n3)CC2)c1` [Example 215, 4-(3-{[(2-aminopyrimidin-4-yl)methyl]oxy}pyrazin-2-yl)-N-(3,5-diethylphenyl)piperazine-1-carboxamide], the half-maximal inhibitory concentration (IC50) is below 0.05 µM.
For the molecule `CC(Oc1cccnc1N1CCN(C(=O)Nc2cc(C(F)(F)F)cc(C(F)(F)F)c2)CC1)c1ccnc(N)n1` (centres unmarked) [Example 216, 4-(3-{[1-(2-aminopyrimidin-4-yl)ethyl]oxy}pyridin-2-yl)-N-[3,5-bis(trifluoromethyl)phenyl]piperazine-1-carboxamide], the IC50 is below 0.05 µM.
As to `Nc1nccc(COc2nccnc2N2CCN(C(=O)Nc3cc(Cl)cc(Cl)c3)CC2)n1` [Example 217, 4-(3-{[(2-aminopyrimidin-4-yl)methyl]oxy}pyrazin-2-yl)-N-(3,5-dichlorophenyl)piperazine-1-carboxamide], the IC50 was below 0.05 µM.
Take `Nc1nccc(COc2nccnc2N2CCN(C(=O)Nc3cc(F)cc(C(F)(F)F)c3)CC2)n1` [Example 218, 4-(3-{[(2-aminopyrimidin-4-yl)methyl]oxy}pyrazin-2-yl)-N-[3-fluoro-5-(trifluoromethyl)phenyl]piperazine-1-carboxamide]: the IC50 is below 0.05 µM.
Take `Nc1nccc(COc2cccnc2N2CCN(C(=O)N3CCCc4ccccc43)CC2)n1` [Example 219, 4-[({2-[4-(3,4-dihydroquinolin-1(2H)-ylcarbonyl)piperazin-1-yl]pyridin-3-yl}oxy)methyl]pyrimidin-2-amine]: the half-inhibitory concentration (IC50) is at least 10 µM.
The molecule `CC(C)CNC(=O)N1CCN(c2ncccc2OCc2ccnc(N)n2)CC1` [Example 220, 4-(3-{[(2-aminopyrimidin-4-yl)methyl]oxy}pyridin-2-yl)-N-(2-methylpropyl)piperazine-1-carboxamide] returned a half-maximal inhibitory concentration (IC50) of at least 10 µM.
Molecule `CCc1cc(Cl)cc(NC(=O)N2CCN(c3nsnc3OCc3ccnc(N)n3)CC2)c1` [Example 221, 4-(4-{[(2-aminopyrimidin-4-yl)methyl]oxy}-1,2,5-thiadiazol-3-yl)-N-(3-chloro-5-ethylphenyl)piperazine-1-carboxamide] registered an IC50 below 0.05 µM.
`CCc1ccc(F)c(NC(=O)N2CCN(c3nsnc3OCc3ccnc(N)n3)CC2)c1` [Example 222, 4-(4-{[(2-aminopyrimidin-4-yl)methyl]oxy}-1,2,5-thiadiazol-3-yl)-N-(5-ethyl-2-fluorophenyl)piperazine-1-carboxamide]: the 50% inhibitory concentration (IC50) lay within 0.05 to 1 µM.
With `Nc1nccc(COc2nsnc2N2CCN(C(=O)Nc3cc(Cl)cc(Cl)c3)CC2)n1` [Example 223, 4-(4-{[(2-aminopyrimidin-4-yl)methyl]oxy}-1,2,5-thiadiazol-3-yl)-N-(3,5-dichlorophenyl)piperazine-1-carboxamide] the figure was 0.05 to 1 µM; with `Nc1nccc(COc2nccnc2N2CCN(C(=O)Nc3ccccc3)CC2)n1` [Example 224, 4-(3-{[(2-aminopyrimidin-4-yl)methyl]oxy}pyrazin-2-yl)-N-phenylpiperazine-1-carboxamide], 0.05 to 1 µM.

A word on the IC50: it is the concentration needed to halve the response being measured. Read a high IC50 as weaker potency.

These data come from patent publication US8013156B2 (Exelixis, Inc., priority 2003, dated 2011).
